# According to patent US5698411A, “Method for determining activity of enzymes in metabolically active whole cells” (priority 1995, dated 1997):
# Numbered stars: 1 amine (or outer) side, 2 acyl side, 3 side chain; on linkers, the order of the positions; unused ones are H or OH. Bridge positions count the residues as written; N and C are the ends. Peptide text beside a SMILES is read from it. I, II: the chains in the order shown. Rhodamine110 = O=C1OC2(c3ccc(N[*:1])cc3Oc3cc(N[*:2])ccc32)c2ccccc21
# What was measured:
# Assay type in all cases: cell-based, human
# granulocytes [1] = assay: aberrant enzyme activities in febrile children, granulocytes (Table 7)
# monocytes [2] = assay: aberrant enzyme activities in febrile children, monocytes (Table 7)
# lymphocytes [3] = assay: enzyme activity with fluorogenic substrate, normal lymphocytes (Table 3A)
# granulocytes [4] = assay: enzyme activity with fluorogenic substrate, normal granulocytes (Table 3A)
# monocytes [5] = assay: enzyme activity with fluorogenic substrate, normal monocytes (Table 3A)
# lymphocytes [6] = assay: aberrant enzyme activities in febrile children, lymphocytes (Table 7)
# [7] = system: metabolically active whole cell; assay: substrate panel in normals and HIV + patients, TB infection (Table 4); parameters: unit not given here
# Protocol: A panel of assay compounds are assembled consisting of Ala-aminopeptidase and Lys-aminopeptidase, Dipeptidyl peptidase IV (Ala-Ala)2 rhodamine 110 and Cathepsin D to indicate possible TB infection in AIDS related cases.
# A panel Of enzymatic substrates is performed consisting of Ala-aminopeptidase and Lys-aminopeptidase, Dipeptidyl peptidase IV (Ala-Ala)2 rhodamine 110 and Cathepsin D to indicate possible TB infection in AIDS related cases.
# [8] = P89 Viral Stomatitis, listed as Val/Lys-M
# [9] = P95 Viral Syndrome, listed as Val/Lys-M
# [10] = P96 Viral Syndrome, listed as Val/Lys-M
# [11] = P97 Pyelonephritis, listed as Val/Lys-M
SMILES,"aberrant enzyme activity, GRANS (granulocytes [1]; P92 Adenitis)","aberrant enzyme activity, GRANS (granulocytes [1]; P97 Pyelonephritis)","aberrant enzyme activity, GRANS (granulocytes [1]; P103 Viral Syndrome)","aberrant enzyme activity, MONOS (monocytes [2]; P92 Adenitis)","aberrant enzyme activity, MONOS (monocytes [2]; P97 Pyelonephritis)","aberrant enzyme activity, MONOS (monocytes [2]; P103 Viral Syndrome)",NORMAL LEUKOCYTE ENZYME ACTIVITY LYMPHS Mean (lymphocytes [3]),NORMAL LEUKOCYTE ENZYME ACTIVITY GRANS Mean (granulocytes [4]),NORMAL LEUKOCYTE ENZYME ACTIVITY MONOS Mean (monocytes [5]),"aberrant enzyme activity, LYMPHS (lymphocytes [6]; P92 Adenitis)","aberrant enzyme activity, LYMPHS (lymphocytes [6]; P97 Pyelonephritis)","aberrant enzyme activity, LYMPHS (lymphocytes [6]; P103 Viral Syndrome)","aberrant enzyme activity, GRANS (granulocytes [1]; P88 Enteritis)","aberrant enzyme activity, GRANS (granulocytes [1]; P101 Fever -- Unknown Origin)","aberrant enzyme activity, MONOS (monocytes [2]; P88 Enteritis)","aberrant enzyme activity, MONOS (monocytes [2]; P95 Viral Syndrome)","aberrant enzyme activity, MONOS (monocytes [2]; P102 UTI)","aberrant enzyme activity, LYMPHS (lymphocytes [6]; P88 Enteritis)","aberrant enzyme activity, LYMPHS (lymphocytes [6]; P89 Viral Stomatitis)","aberrant enzyme activity, LYMPHS (lymphocytes [6]; P102 UTI)",also measured
C[C@@H](O)[C@H](NC(=O)OCc1ccccc1)C(=O)N1CCC[C@H]1C(=O)Nc1ccc2c(c1)Oc1cc(NC(=O)[C@@H]3CCCN3C(=O)[C@@H](NC(=O)OCc3ccccc3)[C@@H](C)O)ccc1C21OC(=O)c2ccccc21 [Z-TP 8.7-M],- (>0.25 Decrease over normal range),.smallcircle.,.smallcircle.,- (>0.25 Decrease over normal range),.smallcircle.,.smallcircle.,30.99,80.16,71.45,- (>0.25 Decrease over normal range),.smallcircle.,.smallcircle.,,,,,,,,,
"CC(C)[C@H](N)C(=O)N[C@@H](CCCCN)C(=O)Nc1ccc2c(c1)Oc1cc(NC(=O)[C@H](CCCCN)NC(=O)[C@@H](N)C(C)C)ccc1C21OC(=O)c2ccccc21 [VK-M, (Val-Lys)2 Rho 110 (modified)]",.smallcircle.,,.smallcircle.,,.smallcircle.,,2.05,4.31,43.37,.smallcircle.,,.smallcircle.,- (>0.25 Decrease over normal range),.smallcircle.,- (>0.25 Decrease over normal range),.smallcircle.,- (>0.25 Decrease over normal range),.smallcircle.,.smallcircle.,.smallcircle.,"aberrant enzyme activity, GRANS (granulocytes [1]; [8]): .smallcircle.; aberrant enzyme activity, GRANS (granulocytes [1]; [9]): + (>0.25 Increase over normal range); aberrant enzyme activity, GRANS (granulocytes [1]; [10]): + (>0.25 Increase over normal range); aberrant enzyme activity, GRANS (granulocytes [1]; [11]): .smallcircle.; aberrant enzyme activity, GRANS (granulocytes [1]; P102 UTI, listed as Val/Lys-M): - (>0.25 Decrease over normal range); aberrant enzyme activity, MONOS (monocytes [2]; [8]): .smallcircle.; aberrant enzyme activity, MONOS (monocytes [2]; P92 Adenitis, listed as Val/Lys-M): - (>0.25 Decrease over normal range); aberrant enzyme activity, MONOS (monocytes [2]; P96 Viral Syndrome): .smallcircle.; aberrant enzyme activity, MONOS (monocytes [2]; P101 Fever -- Unknown Origin, listed as Val/Lys-M): - (>0.25 Decrease over normal range); aberrant enzyme activity, MONOS (monocytes [2]; P103 Viral Syndrome, listed as Val/Lys-M): .smallcircle.; aberrant enzyme activity, LYMPHS (lymphocytes [6]; [9]): + (>0.25 Increase over normal range); aberrant enzyme activity, LYMPHS (lymphocytes [6]; [10]): + (>0.25 Increase over normal range); aberrant enzyme activity, LYMPHS (lymphocytes [6]; [11]): + (>0.25 Increase over normal range); aberrant enzyme activity, LYMPHS (lymphocytes [6]; P101 Fever -- Unknown Origin): .smallcircle."
"N=C(N)NCCC[C@H](N)C(=O)NCC(=O)N[C@@H](CCC(=O)O)C(=O)N[C@@H](CO)C(=O)Nc1ccc2c(c1)Oc1cc(NC(=O)[C@H](CO)NC(=O)[C@H](CCC(=O)O)NC(=O)CNC(=O)[C@@H](N)CCCNC(=N)N)ccc1C21OC(=O)c2ccccc21 (stereo partly drawn) [RGES, (Arg-Gly-Glu-Ser)2 Rho 110] (I: H-RGES / II: H-RGES; linker I:C-II:C via Rhodamine110)",+ (>0.25 Increase over normal range),.smallcircle.,.smallcircle.,+ (>0.25 Increase over normal range),.smallcircle.,.smallcircle.,,3.96,8.37,.smallcircle.,.smallcircle.,.smallcircle.,.smallcircle.,.smallcircle.,- (>0.25 Decrease over normal range),.smallcircle.,.smallcircle.,.smallcircle.,.smallcircle.,.smallcircle.,"aberrant enzyme activity, GRANS (granulocytes [1]; P89 Viral Stomatitis): + (>0.25 Increase over normal range); aberrant enzyme activity, GRANS (granulocytes [1]; P95 Viral Syndrome): .smallcircle.; aberrant enzyme activity, GRANS (granulocytes [1]; P96 Viral Syndrome): .smallcircle.; aberrant enzyme activity, GRANS (granulocytes [1]; P99 Viral Syndrome): .smallcircle.; aberrant enzyme activity, GRANS (granulocytes [1]; P102 UTI): .smallcircle.; aberrant enzyme activity, MONOS (monocytes [2]; P89 Viral Stomatitis): .smallcircle.; aberrant enzyme activity, MONOS (monocytes [2]; P96 Viral Syndrome): .smallcircle.; aberrant enzyme activity, MONOS (monocytes [2]; P99 Viral Syndrome): .smallcircle.; aberrant enzyme activity, MONOS (monocytes [2]; P101 Fever -- Unknown Origin): - (>0.25 Decrease over normal range); aberrant enzyme activity, LYMPHS (lymphocytes [6]; P95 Viral Syndrome): .smallcircle.; aberrant enzyme activity, LYMPHS (lymphocytes [6]; P96 Viral Syndrome): + (>0.25 Increase over normal range); aberrant enzyme activity, LYMPHS (lymphocytes [6]; P99 Viral Syndrome): .smallcircle.; aberrant enzyme activity, LYMPHS (lymphocytes [6]; P101 Fever -- Unknown Origin): .smallcircle."
"C[C@H](NC(=O)[C@@H](N)CCCCN)C(=O)Nc1ccc2c(c1)Oc1cc(NC(=O)[C@H](C)NC(=O)[C@@H](N)CCCCN)ccc1C21OC(=O)c2ccccc21 [KA-M, (Lys-Ala)2 Rho 110]",.smallcircle.,.smallcircle.,.smallcircle.,,,,0.55,,,.smallcircle.,.smallcircle.,.smallcircle.,.smallcircle.,,,,.smallcircle.,.smallcircle.,.smallcircle.,.smallcircle.,"aberrant enzyme activity, GRANS (granulocytes [1]; P89 Viral Stomatitis): .smallcircle.; aberrant enzyme activity, GRANS (granulocytes [1]; P95 Viral Syndrome): .smallcircle.; aberrant enzyme activity, GRANS (granulocytes [1]; P96 Viral Syndrome): .smallcircle.; aberrant enzyme activity, GRANS (granulocytes [1]; P99 Viral Syndrome): .smallcircle.; aberrant enzyme activity, GRANS (granulocytes [1]; P102 UTI): .smallcircle.; aberrant enzyme activity, MONOS (monocytes [2]; P88 Enteritis, listed as Lys/Ala-M): - (>0.25 Decrease over normal range); aberrant enzyme activity, MONOS (monocytes [2]; P89 Viral Stomatitis, listed as Lys/Ala-M): - (>0.25 Decrease over normal range); aberrant enzyme activity, MONOS (monocytes [2]; P92 Adenitis, listed as Lys/Ala-M): - (>0.25 Decrease over normal range); aberrant enzyme activity, MONOS (monocytes [2]; P95 Viral Syndrome, listed as Lys/Ala-M): - (>0.25 Decrease over normal range); aberrant enzyme activity, MONOS (monocytes [2]; P96 Viral Syndrome, listed as Lys/Ala-M): - (>0.25 Decrease over normal range); aberrant enzyme activity, MONOS (monocytes [2]; P97 Pyelonephritis, listed as Lys/Ala-M): - (>0.25 Decrease over normal range); aberrant enzyme activity, MONOS (monocytes [2]; P99 Viral Syndrome): .smallcircle.; aberrant enzyme activity, MONOS (monocytes [2]; P103 Viral Syndrome, listed as Lys/Ala-M): - (>0.25 Decrease over normal range); aberrant enzyme activity, LYMPHS (lymphocytes [6]; P95 Viral Syndrome): .smallcircle.; aberrant enzyme activity, LYMPHS (lymphocytes [6]; P96 Viral Syndrome): .smallcircle.; aberrant enzyme activity, LYMPHS (lymphocytes [6]; P99 Viral Syndrome, listed as Lys/Ala-M): + (>0.25 Increase over normal range)"
"CC(C)[C@H](N)C(=O)N[C@@H](CCCCN)C(=O)Nc1ccc2c(c1)Oc1cc(NC(=O)[C@H](CCCCN)NC(=O)[C@@H](N)C(C)C)ccc1C21OC(=O)c2ccccc21 [VK, (Val-Lys)2 Rho 110]",.smallcircle.,+ (>0.25 Increase over normal range),.smallcircle.,.smallcircle.,.smallcircle.,+ (>0.25 Increase over normal range),1.87,5.10,,.smallcircle.,.smallcircle.,.smallcircle.,- (>0.25 Decrease over normal range),.smallcircle.,- (>0.25 Decrease over normal range),.smallcircle.,- (>0.25 Decrease over normal range),.smallcircle.,.smallcircle.,.smallcircle.,"aberrant enzyme activity, GRANS (granulocytes [1]; P89 Viral Stomatitis): - (>0.25 Decrease over normal range); aberrant enzyme activity, GRANS (granulocytes [1]; P95 Viral Syndrome): - (>0.25 Decrease over normal range); aberrant enzyme activity, GRANS (granulocytes [1]; P96 Viral Syndrome): .smallcircle.; aberrant enzyme activity, GRANS (granulocytes [1]; P99 Viral Syndrome): + (>0.25 Increase over normal range); aberrant enzyme activity, GRANS (granulocytes [1]; P102 UTI): .smallcircle.; aberrant enzyme activity, MONOS (monocytes [2]; P89 Viral Stomatitis): - (>0.25 Decrease over normal range); aberrant enzyme activity, MONOS (monocytes [2]; P96 Viral Syndrome): .smallcircle.; aberrant enzyme activity, MONOS (monocytes [2]; P99 Viral Syndrome): + (>0.25 Increase over normal range); aberrant enzyme activity, MONOS (monocytes [2]; P101 Fever -- Unknown Origin): .smallcircle.; MEAN DELTA FL ([7]; HIV + PATIENTS): 17.7; MEAN DELTA FL ([7]; NORMALS): 22.7; aberrant enzyme activity, LYMPHS (lymphocytes [6]; P95 Viral Syndrome): - (>0.25 Decrease over normal range); aberrant enzyme activity, LYMPHS (lymphocytes [6]; P96 Viral Syndrome): .smallcircle.; aberrant enzyme activity, LYMPHS (lymphocytes [6]; P99 Viral Syndrome): + (>0.25 Increase over normal range); aberrant enzyme activity, LYMPHS (lymphocytes [6]; P101 Fever -- Unknown Origin): .smallcircle."
